Source: the NIST ThermoML archive (doi:10.1021/je050050p)
± gives the expanded uncertainty stated by the source.

Assay: xn = mol fraction of the nth substance listed
Conditions: Liquid, Vibrating tube method

CN(C)C=O [dimethylformamide] + O=C=O
Conditions	mass density [kg/m3]
313.13 K, 8014 kPa, x2 = 0.6235	949.79 ± 0.41
313.13 K, 9041 kPa, x2 = 0.6235	952.04 ± 0.41
313.13 K, 10057 kPa, x2 = 0.6235	954.25 ± 0.41
313.13 K, 10998 kPa, x2 = 0.6235	956.28 ± 0.41
313.13 K, 11991 kPa, x2 = 0.6235	958.34 ± 0.41
313.13 K, 12985 kPa, x2 = 0.6235	960.34 ± 0.41
313.13 K, 14000 kPa, x2 = 0.6235	962.36 ± 0.41
313.13 K, 14996 kPa, x2 = 0.6235	964.28 ± 0.41
313.13 K, 16016 kPa, x2 = 0.6235	966.23 ± 0.41
313.13 K, 16993 kPa, x2 = 0.6235	968.02 ± 0.41
313.13 K, 18006 kPa, x2 = 0.6235	969.86 ± 0.41
313.13 K, 18988 kPa, x2 = 0.6235	971.7 ± 0.41
313.13 K, 20033 kPa, x2 = 0.6235	973.47 ± 0.41
313.13 K, 21061 kPa, x2 = 0.6235	975.25 ± 0.41
313.13 K, 22021 kPa, x2 = 0.6235	976.88 ± 0.41
313.13 K, 22996 kPa, x2 = 0.6235	978.52 ± 0.41
313.13 K, 24001 kPa, x2 = 0.6235	980.14 ± 0.41
313.13 K, 25034 kPa, x2 = 0.6235	981.79 ± 0.41
313.14 K, 9015 kPa, x2 = 0.8091	920.03 ± 0.42
313.14 K, 9992 kPa, x2 = 0.8091	923.92 ± 0.42
313.14 K, 10006 kPa, x2 = 0.9311	835.47 ± 0.47
313.14 K, 11003 kPa, x2 = 0.8091	927.79 ± 0.42
313.14 K, 11013 kPa, x2 = 0.9311	846.13 ± 0.47
313.14 K, 12022 kPa, x2 = 0.8091	931.54 ± 0.42
313.14 K, 12041 kPa, x2 = 0.9311	855.75 ± 0.46
313.14 K, 13011 kPa, x2 = 0.8091	934.99 ± 0.42
313.14 K, 13017 kPa, x2 = 0.9311	864.01 ± 0.45
313.14 K, 14003 kPa, x2 = 0.8091	938.37 ± 0.42
313.14 K, 14036 kPa, x2 = 0.9311	871.87 ± 0.45
313.14 K, 15006 kPa, x2 = 0.8091	941.63 ± 0.42
313.14 K, 15031 kPa, x2 = 0.9311	878.95 ± 0.44
313.14 K, 16000 kPa, x2 = 0.8091	944.75 ± 0.41
313.14 K, 16006 kPa, x2 = 0.9311	885.43 ± 0.44
313.14 K, 16988 kPa, x2 = 0.8091	947.8 ± 0.41
313.14 K, 17030 kPa, x2 = 0.9311	891.82 ± 0.44
313.14 K, 17988 kPa, x2 = 0.9311	897.48 ± 0.44
313.14 K, 18019 kPa, x2 = 0.8091	950.82 ± 0.41
313.14 K, 18996 kPa, x2 = 0.8091	953.63 ± 0.41
313.14 K, 19037 kPa, x2 = 0.9311	903.28 ± 0.43
313.14 K, 20022 kPa, x2 = 0.9311	908.47 ± 0.43
313.14 K, 20032 kPa, x2 = 0.8091	956.51 ± 0.41
313.14 K, 21000 kPa, x2 = 0.9311	913.41 ± 0.43
313.14 K, 21035 kPa, x2 = 0.8091	959.25 ± 0.41
313.14 K, 21995 kPa, x2 = 0.8091	961.81 ± 0.41
313.14 K, 22002 kPa, x2 = 0.9311	918.23 ± 0.43
313.14 K, 23016 kPa, x2 = 0.9311	922.92 ± 0.43
313.14 K, 23033 kPa, x2 = 0.8091	964.52 ± 0.41
313.14 K, 24006 kPa, x2 = 0.9311	927.35 ± 0.43
313.14 K, 24015 kPa, x2 = 0.8091	966.98 ± 0.41
313.14 K, 25006 kPa, x2 = 0.8091	969.42 ± 0.44
313.14 K, 25020 kPa, x2 = 0.9311	931.7 ± 0.43
313.15 K, 4032 kPa, x2 = 0.2876	948.43 ± 0.41
313.15 K, 5041 kPa, x2 = 0.2876	949.39 ± 0.41
313.15 K, 6004 kPa, x2 = 0.2876	950.24 ± 0.41
313.15 K, 6005 kPa, x2 = 0.4268	955.61 ± 0.41
313.15 K, 6022 kPa, x2 = 0.4461	956.18 ± 0.41
313.15 K, 6967 kPa, x2 = 0.2876	951.12 ± 0.41
313.15 K, 6991 kPa, x2 = 0.4461	957.31 ± 0.41
313.15 K, 7013 kPa, x2 = 0.4268	956.75 ± 0.41
313.15 K, 8002 kPa, x2 = 0.2876	952.05 ± 0.41
313.15 K, 8008 kPa, x2 = 0.4268	957.9 ± 0.41
313.15 K, 8024 kPa, x2 = 0.4461	958.53 ± 0.41
313.15 K, 9005 kPa, x2 = 0.2876	952.94 ± 0.41
313.15 K, 9006 kPa, x2 = 0.4461	959.66 ± 0.41
313.15 K, 9014 kPa, x2 = 0.4268	958.99 ± 0.41
313.15 K, 9998 kPa, x2 = 0.4461	960.8 ± 0.41
313.15 K, 10000 kPa, x2 = 0.2876	953.81 ± 0.41
313.15 K, 10006 kPa, x2 = 0.4268	960.05 ± 0.41
313.15 K, 10989 kPa, x2 = 0.4461	961.9 ± 0.41
313.15 K, 11017 kPa, x2 = 0.2876	954.68 ± 0.41
313.15 K, 11017 kPa, x2 = 0.4268	961.14 ± 0.41
313.15 K, 12006 kPa, x2 = 0.4268	962.22 ± 0.41
313.15 K, 12024 kPa, x2 = 0.2876	955.56 ± 0.41
313.15 K, 12025 kPa, x2 = 0.4461	963.02 ± 0.41
313.15 K, 13003 kPa, x2 = 0.4461	964.12 ± 0.41
313.15 K, 13004 kPa, x2 = 0.4268	963.25 ± 0.41
313.15 K, 13007 kPa, x2 = 0.2876	956.41 ± 0.41
313.15 K, 13997 kPa, x2 = 0.4268	964.28 ± 0.41
313.15 K, 13999 kPa, x2 = 0.4461	965.2 ± 0.41
313.15 K, 14004 kPa, x2 = 0.2876	957.26 ± 0.41
313.15 K, 14993 kPa, x2 = 0.4461	966.26 ± 0.41
313.15 K, 15003 kPa, x2 = 0.4268	965.36 ± 0.41
313.15 K, 15006 kPa, x2 = 0.2876	958.1 ± 0.41
